# Laboratory results: ChEMBL document CHEMBL5500344, “Design, synthesis and biological evaluation of matrine contains benzimidazole derivatives as dual TOPOI and PARP inhibitors for cancer therapy” (Eur J Med Chem, 2024)
# Active and inactive are the calls of the source. The calls are words filed in the database; no cut-off is given here.
# What was measured:
# A549 = assay: Antiproliferative activity against human A549 cells assessed as inhibition of cell growth incubated for 48 hrs by MTT assay; assay type: functional, cell-based; settings: A549, 48 h
# HGC-27 = assay: Antiproliferative activity against human HGC-27 cells assessed as inhibition of cell growth incubated for 48 hrs by MTT assay; assay type: functional, cell-based; settings: HGC-27, 48 h, read-out: IC50
# HeLa = assay: Antiproliferative activity against human HeLa cells assessed as inhibition of cell growth incubated for 48 hrs by MTT assay; assay type: functional, cell-based
# HepG2 = assay: Antiproliferative activity against human HepG2 cells assessed as inhibition of cell growth incubated for 48 hrs by MTT assay; assay type: functional, cell-based; settings: HepG2, 48 h
# L02 = assay: Antiproliferative activity against human L02 cells assessed as inhibition of cell growth incubated for 48 hrs by MTT assay; assay type: functional, cell-based; settings: L02, 48 h
# [1] = target: Poly [ADP-ribose] polymerase 1 (Homo sapiens, UniProt P09874); assay: Inhibition of PARP-1 (unknown origin) incubated for 70 mins by HT universal chemiluminescent assay
# [2] = target: T1, DNA topoisomerase 1 (Homo sapiens) (UniProt P11387); assay: Inhibition of human topoisomerase 1 assessed as relaxation of supercoiled pBR322 plasmid DNA at 100 uM incubated for 10 to 15 mins by EtBr staining based agarose gel electrophoresis method; settings: time 10-15 min
# T1 sequence (whole entry): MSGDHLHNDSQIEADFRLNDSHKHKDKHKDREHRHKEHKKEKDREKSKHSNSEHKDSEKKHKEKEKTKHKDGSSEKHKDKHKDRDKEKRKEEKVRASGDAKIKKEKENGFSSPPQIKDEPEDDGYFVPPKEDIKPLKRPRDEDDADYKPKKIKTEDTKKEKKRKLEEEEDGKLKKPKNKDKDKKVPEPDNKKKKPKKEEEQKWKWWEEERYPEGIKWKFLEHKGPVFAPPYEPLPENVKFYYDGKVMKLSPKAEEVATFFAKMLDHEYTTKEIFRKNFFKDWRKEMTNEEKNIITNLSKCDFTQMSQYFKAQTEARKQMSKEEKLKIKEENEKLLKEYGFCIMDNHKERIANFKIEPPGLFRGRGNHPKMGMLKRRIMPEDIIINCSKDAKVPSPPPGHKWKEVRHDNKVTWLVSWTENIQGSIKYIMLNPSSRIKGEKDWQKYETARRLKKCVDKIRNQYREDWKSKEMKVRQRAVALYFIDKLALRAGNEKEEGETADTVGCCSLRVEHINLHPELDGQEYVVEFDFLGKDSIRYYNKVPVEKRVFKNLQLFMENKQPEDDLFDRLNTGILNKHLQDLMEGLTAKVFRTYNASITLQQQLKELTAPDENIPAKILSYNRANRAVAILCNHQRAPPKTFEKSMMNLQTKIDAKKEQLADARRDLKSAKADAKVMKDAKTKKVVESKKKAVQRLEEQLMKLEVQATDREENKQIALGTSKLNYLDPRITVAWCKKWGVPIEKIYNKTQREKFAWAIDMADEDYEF
# Sequence of Poly [ADP-ribose] polymerase 1 (P09874 whole entry): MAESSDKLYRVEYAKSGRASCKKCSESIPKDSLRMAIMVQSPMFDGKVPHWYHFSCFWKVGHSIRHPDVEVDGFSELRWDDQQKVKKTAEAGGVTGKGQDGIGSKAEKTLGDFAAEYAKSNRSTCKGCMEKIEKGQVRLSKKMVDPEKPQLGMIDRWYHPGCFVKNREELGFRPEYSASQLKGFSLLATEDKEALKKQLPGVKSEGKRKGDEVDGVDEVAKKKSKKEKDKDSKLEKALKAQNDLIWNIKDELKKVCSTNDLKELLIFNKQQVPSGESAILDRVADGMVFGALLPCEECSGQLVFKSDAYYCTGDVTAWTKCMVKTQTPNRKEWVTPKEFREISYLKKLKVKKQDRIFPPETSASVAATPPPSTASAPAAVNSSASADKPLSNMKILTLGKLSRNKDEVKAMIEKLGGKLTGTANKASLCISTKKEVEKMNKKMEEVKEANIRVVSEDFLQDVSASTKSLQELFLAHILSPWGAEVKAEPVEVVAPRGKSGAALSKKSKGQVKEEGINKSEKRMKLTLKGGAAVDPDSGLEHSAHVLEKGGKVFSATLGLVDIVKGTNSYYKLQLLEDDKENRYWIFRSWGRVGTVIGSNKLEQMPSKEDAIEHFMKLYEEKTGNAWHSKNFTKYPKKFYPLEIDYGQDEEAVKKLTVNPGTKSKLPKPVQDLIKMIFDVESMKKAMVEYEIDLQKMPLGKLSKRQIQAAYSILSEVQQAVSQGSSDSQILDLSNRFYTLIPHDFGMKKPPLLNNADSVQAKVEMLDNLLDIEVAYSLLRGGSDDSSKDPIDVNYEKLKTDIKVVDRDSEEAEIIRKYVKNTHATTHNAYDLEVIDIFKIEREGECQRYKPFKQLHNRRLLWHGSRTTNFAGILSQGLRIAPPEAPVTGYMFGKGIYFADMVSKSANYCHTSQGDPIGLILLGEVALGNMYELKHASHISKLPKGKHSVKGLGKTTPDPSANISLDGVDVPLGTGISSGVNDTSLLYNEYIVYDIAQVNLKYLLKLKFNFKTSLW
IC50 (A549) [µM],IC50 (HeLa) [µM],IC50 (HepG2) [µM],IC50 [1] [µM],inhibition [2],Structure (SMILES),IC50 (HGC-27) [µM],IC50 (L02) [µM]
62.8,65.6,50.2,–,–,CC(C)(C)c1ccc(S(=O)(=O)N2C[C@@H]3CCCN4CCC[C@@H]([C@H]34)[C@H]2CCCc2nc3cc([N+](=O)[O-])ccc3n2S(=O)(=O)c2ccc(C(C)(C)C)cc2)cc1,44.2,–
53.2,> 80,52.3,–,–,Cc1ccc(S(=O)(=O)N2C[C@@H]3CCCN4CCC[C@@H]([C@H]34)[C@H]2CCCc2nc3cc([N+](=O)[O-])ccc3n2S(=O)(=O)c2ccc(C)cc2)cc1,47.4,–
62.4,40,19.8,–,–,O=S(=O)(c1cccc2ccccc12)N1C[C@@H]2CCCN3CCC[C@@H]([C@H]23)[C@H]1CCCc1nc2ccc(F)cc2n1S(=O)(=O)c1cccc2ccccc12,12.4,–
46.1,53.2,11.2,–,–,O=S(=O)(c1ccc(Cl)cc1)N1C[C@@H]2CCCN3CCC[C@@H]([C@H]23)[C@H]1CCCc1nc2ccc(Cl)cc2n1S(=O)(=O)c1ccc(Cl)cc1,12.1,–
24.1,16.6,16.5,–,–,O=C(OCC1c2ccccc2-c2ccccc21)N1C[C@@H]2CCCN3CCC[C@@H]([C@H]23)[C@H]1CCCc1nc2ccccc2n1C(=O)OCC1c2ccccc2-c2ccccc21,13.8,–
57.3,62.4,9.17,14.4,–,O=S(=O)(c1ccc(C(F)(F)F)cc1)N1C[C@@H]2CCCN3CCC[C@@H]([C@H]23)[C@H]1CCCc1nc2cc(Cl)ccc2n1S(=O)(=O)c1ccc(C(F)(F)F)cc1,8.65,> 64
36.3,20.4,19.7,–,–,O=C(OCC1c2ccccc2-c2ccccc21)N1C[C@@H]2CCCN3CCC[C@@H]([C@H]23)[C@H]1CCCc1nc2ccc(Cl)cc2[nH]1,15.2,–
12.3,8.56,5.89,4.17,–,Cc1ccc(S(=O)(=O)N2C[C@@H]3CCCN4CCC[C@@H]([C@H]34)[C@H]2CCCc2nc3ccc(Br)cc3n2S(=O)(=O)c2ccc(C)cc2)cc1,9.38,> 64
10.8,7.45,4.92,1.41,Active,Cc1ccc(S(=O)(=O)N2C[C@@H]3CCCN4CCC[C@@H]([C@H]34)[C@H]2CCCc2nc3cc(Br)ccc3n2S(=O)(=O)c2ccc(C)cc2)cc1,6.36,> 64
67.2,78.5,70.7,–,–,CC(C)(C)c1ccc(S(=O)(=O)N2C[C@@H]3CCCN4CCC[C@@H]([C@H]34)[C@H]2CCCc2nc3ccc(Cl)cc3n2S(=O)(=O)c2ccc(C(C)(C)C)cc2)cc1,60.3,–
79.9,59.6,> 80,–,–,O=S(=O)(c1ccc(Br)cc1)N1C[C@@H]2CCCN3CCC[C@@H]([C@H]23)[C@H]1CCCc1nc2cc(Cl)ccc2n1S(=O)(=O)c1ccc(Br)cc1,77.2,–
69.3,70.1,52.8,–,–,CC(C)(C)c1ccc(S(=O)(=O)N2C[C@@H]3CCCN4CCC[C@@H]([C@H]34)[C@H]2CCCc2nc3ccc([N+](=O)[O-])cc3n2S(=O)(=O)c2ccc(C(C)(C)C)cc2)cc1,47.8,–
18.7,13.2,22.5,–,–,O=C(CCC[C@@H]1[C@H]2CCCN3CCC[C@@H](CN1C(=O)OCC1c4ccccc4-c4ccccc41)[C@@H]23)NCCCc1nc2ccc(C(F)(F)F)cc2[nH]1,19.7,–
59.7,55.6,11.6,–,–,CC(C)(C)c1ccc(S(=O)(=O)N2C[C@@H]3CCCN4CCC[C@@H]([C@H]34)[C@H]2CCCc2nc3ccccc3n2S(=O)(=O)c2ccc(C(C)(C)C)cc2)cc1,22.2,–
20.8,15.1,11.6,–,–,O=C(OCC1c2ccccc2-c2ccccc21)N1C[C@@H]2CCCN3CCC[C@@H]([C@H]23)[C@H]1CCCc1nc2ccc(Br)cc2[nH]1,10.4,–
69.9,49.6,13.5,–,–,Cc1ccc(S(=O)(=O)N2C[C@@H]3CCCN4CCC[C@@H]([C@H]34)[C@H]2CCCc2nc3ccccc3n2S(=O)(=O)c2ccc(C)cc2)cc1,18.2,–
74.2,71.8,40,–,–,Cc1ccc(S(=O)(=O)N2C[C@@H]3CCCN4CCC[C@@H]([C@H]34)[C@H]2CCCc2nc3ccc([N+](=O)[O-])cc3n2S(=O)(=O)c2ccc(C)cc2)cc1,40.2,–
19,21.2,28.6,–,–,O=C(OCC1c2ccccc2-c2ccccc21)N1C[C@@H]2CCCN3CCC[C@@H]([C@H]23)[C@H]1CCCc1nc2ccc(C(F)(F)F)cc2n1C(=O)OCC1c2ccccc2-c2ccccc21,27.8,–
20.6,15.5,23.8,–,–,Cn1c(CCCNC(=O)CCC[C@@H]2[C@H]3CCCN4CCC[C@@H](CN2C(=O)OCC2c5ccccc5-c5ccccc52)[C@@H]34)nc2ccc([N+](=O)[O-])cc21,16.8,–
13.2,8.46,10.8,0.28,Active,O=C(OCC1c2ccccc2-c2ccccc21)N1C[C@@H]2CCCN3CCC[C@@H]([C@H]23)[C@H]1CCCc1nc2cc(Cl)c(Cl)cc2[nH]1,9.78,> 64
30.7,21.7,37.4,–,–,O=C(CCC[C@@H]1[C@H]2CCCN3CCC[C@@H](CN1C(=O)OCC1c4ccccc4-c4ccccc41)[C@@H]23)NCCCc1nc2ccccc2[nH]1,24.4,–
68.2,71.2,32.2,–,–,O=S(=O)(c1ccc(Br)cc1)N1C[C@@H]2CCCN3CCC[C@@H]([C@H]23)[C@H]1CCCc1nc2ccc(Cl)cc2n1S(=O)(=O)c1ccc(Br)cc1,29.3,–
68.3,> 80,21.6,–,–,O=S(=O)(c1ccc(Cl)cc1)N1C[C@@H]2CCCN3CCC[C@@H]([C@H]23)[C@H]1CCCc1nc2cc(Cl)ccc2n1S(=O)(=O)c1ccc(Cl)cc1,18.4,–
77.5,66.3,> 80,–,–,CC(C)(C)c1ccc(S(=O)(=O)N2C[C@@H]3CCCN4CCC[C@@H]([C@H]34)[C@H]2CCCc2nc3cc(Cl)ccc3n2S(=O)(=O)c2ccc(C(C)(C)C)cc2)cc1,58.9,–
16.9,10.9,6.85,13.8,–,O=S(=O)(c1cccc2ccccc12)N1C[C@@H]2CCCN3CCC[C@@H]([C@H]23)[C@H]1CCCc1nc2cc(F)ccc2n1S(=O)(=O)c1cccc2ccccc12,7.56,> 64
> 80,> 80,> 80,–,–,O=S(=O)(c1ccc(C(F)(F)F)cc1)N1C[C@@H]2CCCN3CCC[C@@H]([C@H]23)[C@H]1CCCc1nc2ccc(Cl)cc2n1S(=O)(=O)c1ccc(C(F)(F)F)cc1,70.3,–
11.8,16,6.69,> 16,Active,O=C(CCC[C@@H]1[C@H]2CCCN3CCC[C@@H](CN1C(=O)OCC1c4ccccc4-c4ccccc41)[C@@H]23)NCCCc1nc2ccc(F)cc2[nH]1,8.12,> 64
33.6,25.5,27.7,–,–,O=C(OCC1c2ccccc2-c2ccccc21)N1C[C@@H]2CCCN3CCC[C@@H]([C@H]23)[C@H]1CCCc1nc2ccc(C(F)(F)F)cc2[nH]1,25.6,–
31,23.8,13.8,–,–,Cn1c(CCC[C@@H]2[C@H]3CCCN4CCC[C@@H](CN2C(=O)OCC2c5ccccc5-c5ccccc52)[C@@H]34)nc2ccc([N+](=O)[O-])cc21,11.1,–
15.2,18.1,13.7,–,–,C[C@]1(c2nc3c(C(N)=O)cccc3[nH]2)CCCN1 [VELIPARIB],16,–
